This is an account of results in patent publication US20230108906A1, “SUBSTITUTED BICYCLIC AND TRICYCLIC UREAS AND AMIDES, ANALOGUES THEREOF, AND METHODS USING SAME” (Arbutus Biopharma Corporation, priority 2019, published 2023).

Structures are written as SMILES.

For the first experiment, the system named is HBV rcDNA in HepDE19 cells. As to the kind of experiment: HepDE19 assay with bDNA quantitation of HBV rcDNA. The format is cell-based, hepatitis B virus (HBV). The conditions noted are these: Hepatitis B virus, HepDE19, 168 h, inhibition of rcDNA formation in HepDE19 cells (HepG2 derived), Tet-free medium, 7 day incubation, Quantigene 2.0 bDNA readout, top concentration 25 μM; read-out: DE-19bDNA EC50. A digest of the protocol:
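HepDE19 cells (HepG2-derived, Tet-regulated HBV) switched to Tet-free medium, then treated 7 days at 37 °C with compound, 8-point titration from 25 μM, 0.5% DMSO. rcDNA quantified by bDNA with HBV probes; EC50/EC90 via 4-parameter fit. Viability (CC50) by CellTiter-Glo ATP on 5,000 cells/well after 4 days.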
For the compound `CN(C(=O)N1Cc2ccc(Br)cc2C1)[C@@H]1COCc2[nH]c(=O)c3cc(F)c(F)cc3c21` [Compound 220, (S)-5-Bromo-N-(8,9-difluoro-6-oxo-1,4,5,6-tetrahydro-2H-pyrano[3,4-c]isoquinolin-1-yl)-N-methylisoindoline-2-carboxamide], the EC50 was determined as 13 µM. Still for that read-out and setting: the value for `CN(C(=O)Nc1ccc(F)c(Cl)c1)C1COCc2nc(NCCN)c3cc(F)c(F)cc3c21` (stereo not shown) [Compound 240] was 0.59 µM; that for `O=C(Nc1ccc(F)c(Cl)c1)N[C@@H]1COCc2[nH]c(=O)c3cc(F)ccc3c21` (single isomer, unassigned) [Compound 67] was 0.09 µM; that for `O=C(Nc1ccc(F)c(Cl)c1)N[C@@H]1COCc2[nH]c(=O)c3cc(F)c(F)cc3c21` (single isomer, unassigned) [Compound 68] was 0.03 µM. With `CCN(C(=O)Nc1ccc(F)c(C)c1)C1COCc2[nH]c(=O)c3cc(Cl)ccc3c21` (stereo not shown) [Compound 59, 1-(8-Chloro-6-oxo-1,4,5,6-tetrahydro-2H-pyrano[3,4-c]isoquinolin-1-yl)-1-ethyl-3-(4-fluoro-3-methylphenyl)urea], the EC50 was found to be 0.02 µM. Still for that read-out and setting: the value for `CN(C(=O)Nc1ccc(F)c(Cl)c1)C1CCCc2[nH]c(=O)c3c(c21)COCC3` (single isomer, unassigned) [Compound 79, 3-(3-Chloro-4-fluorophenyl)-1-methyl-1-(5-oxo-3,4,5,6,7,8,9,10-octahydro-1H-pyrano[4,3-c]quinolin-10-yl)urea] was not below 25 µM; that for `CN(C(=O)Nc1ccc(F)c(Cl)c1)[C@H]1COCc2[nH]c(=O)c3cc(F)c(F)cc3c21` (single isomer, unassigned) [Compound 71] was 0.21 µM.

Regarding `CN(C(=O)Nc1ccc(F)c(Cl)c1)C1CCc2[nH]c(=O)c3ccccc3c21` (stereo not shown) [Compound 12, 3-(3-Chloro-4-fluorophenyl)-1-methyl-1-(5-oxo-2,3,4,5-tetrahydro-1H-cyclopenta[c]isoquinolin-1-yl)urea], the EC50 turned out to be 0.09 µM. On the same count and under the same terms, the result for `CN(C(=O)Nc1ccc(F)c(Cl)c1)C1COCc2[nH]c(=O)c3cc(F)ccc3c21` (racemic) [Compound 23, 3-(3-Chloro-4-fluorophenyl)-1-(8-fluoro-6-oxo-1,4,5,6-tetrahydro-2H-pyrano[3,4-c]isoquinolin-1-yl)-1-methylurea] reads 0.02 µM. Regarding `CCN(C(=O)Nc1ccc(F)c(C#N)c1)[C@@H]1COCc2[nH]c(=O)c3cc(F)c(F)cc3c21` (single isomer, unassigned) [Compound 138], the EC50 was found to be 0.01 µM.

Still in this experiment, the particulars now being: Hepatitis B virus, HepDE19, 168 h, read-out: DE-19bDNA EC50 (uM), inhibition of rcDNA formation in HepDE19 cells (HepG2 derived), Tet-free medium, 7 day incubation, Quantigene 2.0 bDNA readout, top concentration 25 μM.
Regarding `CN(C(=O)N1Cc2ccc(C(F)(F)F)cc2C1)[C@@H]1COCc2[nH]c(=O)c3cc(F)c(F)cc3c21` [Compound 230, (S)—N-(8,9-Difluoro-6-oxo-1,4,5,6-tetrahydro-2H-pyrano[3,4-c]isoquinolin-1-yl)-N-methyl-5-(trifluoromethyl)isoindoline-2-carboxamide], the EC50 is 24 µM.

The same experiment, now with this note: inhibition of rcDNA formation in HepDE19 cells (HepG2 derived), Tet-free medium, 7 day incubation, Quantigene 2.0 bDNA readout, top concentration 25 μM; read-out: DE-19bDNA EC50.
Turning to `CN(C(=O)Nc1ccc(F)c(Cl)c1)C1CNCc2[nH]c(=O)c3cc(F)c(F)cc3c21` (single isomer, unassigned) [Compound 150, 3-(3-Chloro-4-fluorophenyl)-1-(8,9-difluoro-6-oxo-1,2,3,4,5,6-hexahydrobenzo[c][1,7]naphthyridin-1-yl)-1-methylurea], the EC50 turned out to be 0.01 µM. As to `CN(C(=O)N1Cc2ccccc2C1)C1CNCc2[nH]c(=O)c3cc(F)c(F)cc3c21` (single isomer, unassigned) [Compound 222, N-(8,9-Difluoro-6-oxo-1,2,3,4,5,6-hexahydrobenzo[c][1,7]naphthyridin-1-yl)-N-methylisoindoline-2-carboxamide], the EC50 is not below 25 µM.

`CN(C(=O)Nc1ccc(F)c(F)c1)C1COCc2[nH]c(=O)c3c(c21)COCC3` (single isomer, unassigned) [Compound 85, 3-(3,4-Difluorophenyl)-1-methyl-1-(5-oxo-1,3,4,5,6,7,9,10-octahydrodipyrano[3,4-b:3′,4′-d]pyridin-10-yl)urea]: the EC50 was 4.5 µM. The same measure, in the same setting: the value for `CN1Cc2[nH]c(=O)c3cc(F)ccc3c2C(N(C)C(=O)Nc2ccc(F)c(C#N)c2)C1` (single isomer, unassigned) [Compound 163, 3-(3-Cyano-4-fluorophenyl)-1-(8-fluoro-3-methyl-6-oxo-1,2,3,4,5,6-hexahydrobenzo[c][1,7]naphthyridin-1-yl)-1-methylurea] was 23 µM. On the same count and under the same terms, the result for `CN(C(=O)Nc1ccc(F)c(C#N)c1)C1CNCc2[nH]c(=O)c3cc(F)c(F)cc3c21` (single isomer, unassigned) [Compound 176, 3-(3-Cyano-4-fluorophenyl)-1-(8,9-difluoro-6-oxo-1,2,3,4,5,6-hexahydrobenzo[c][1,7]naphthyridin-1-yl)-1-methylurea] reads 0.05 µM. Consider `CN(C(=O)Nc1ccc(F)c(C#N)c1)C1C[S+]([O-])Cc2[nH]c(=O)c3cc(F)ccc3c21` (single isomer, unassigned) [Compound 199, 3-(3-Cyano-4-fluorophenyl)-1-(8-fluoro-3-oxido-6-oxo-1,4,5,6-tetrahydro-2H-thiopyrano[3,4-c]isoquinolin-1-yl)-1-methylurea], for which the EC50 is 20 µM. Take `CC(=O)N1Cc2[nH]c(=O)c3cc(F)ccc3c2C(N(C)C(=O)Nc2ccc(F)c(Cl)c2)C1` (single isomer, unassigned) [Compound 158, 1-(3-Acetyl-8-fluoro-6-oxo-1,2,3,4,5,6-hexahydrobenzo[c][1,7]naphthyridin-1-yl)-3-(3-chloro-4-fluorophenyl)-1-methylurea]: the EC50 stood at 2.3 µM. Same read-out and setting: the result for `CN(C(=O)Nc1ccc(F)c(Cl)c1)C1CS(=O)(=O)Cc2[nH]c(=O)c3cc(F)c(F)cc3c21` (single isomer, unassigned) [Compound 204, 3-(3-Chloro-4-fluorophenyl)-1-(8,9-difluoro-3,3-dioxido-6-oxo-1,4,5,6-tetrahydro-2H-thiopyrano[3,4-c]isoquinolin-1-yl)-1-methylurea] reads 1.4 µM; that for `CS(=O)(=O)CCN(C(=O)Nc1ccc(F)c(Cl)c1)C1COCc2[nH]c(=O)c3cc(F)c(F)cc3c21` (single isomer, unassigned) [Compound 140, 3-(3-Chloro-4-fluorophenyl)-1-(8,9-difluoro-6-oxo-1,4,5,6-tetrahydro-2H-pyrano[3,4-c]isoquinolin-1-yl)-1-(2-(methylsulfonyl)ethyl)urea], 0.01 µM.

`CN(C(=O)Nc1ccc(F)c(C(F)F)c1)C1CNCc2[nH]c(=O)c3cc(F)c(F)cc3c21` (single isomer, unassigned) [Compound 216, 1-(8,9-Difluoro-6-oxo-1,2,3,4,5,6-hexahydrobenzo[c][1,7]naphthyridin-1-yl)-3-(3-(difluoromethyl)-4-fluorophenyl)-1-methylurea]: the EC50 was 3.5 µM. The same measure, in the same setting: the value for `CN(C(=O)Nc1ccc(F)c(C#N)c1)C1C[S+]([O-])Cc2[nH]c(=O)c3cc(F)c(F)cc3c21` (single isomer, unassigned) [Compound 211, 3-(3-Cyano-4-fluorophenyl)-1-(8,9-difluoro-3-oxido-6-oxo-1,4,5,6-tetrahydro-2H-thiopyrano[3,4-c]isoquinolin-1-yl)-1-methylurea] was 5.5 µM; that for `CN(C(=O)Nc1ccc(F)c(F)c1)C1COCc2[nH]c(=O)c3cc(F)c(F)cc3c21` (single isomer, unassigned) [Compound 118, 1-(8,9-Difluoro-6-oxo-1,4,5,6-tetrahydro-2H-pyrano[3,4-c]isoquinolin-1-yl)-3-(3,4-difluorophenyl)-1-methylurea] was 0.01 µM. As to `CN(C(=O)Nc1ccc(F)c(Cl)c1)C1CSCc2[nH]c(=O)c3cc(F)c(F)cc3c21` (single isomer, unassigned) [Compound 188, 3-(3-Chloro-4-fluorophenyl)-1-(8,9-difluoro-6-oxo-1,4,5,6-tetrahydro-2H-thiopyrano[3,4-c]isoquinolin-1-yl)-1-methylurea], the EC50 worked out at 0.02 µM. Take `CN(C(=O)Nc1ccc(F)c(Cl)c1)C1CCCc2[nH]c(=O)c3ccccc3c21` (single isomer, unassigned) [Compound 17, 3-(3-Chloro-4-fluorophenyl)-1-methyl-1-(6-oxo-1,2,3,4,5,6-hexahydrophenanthridin-1-yl)urea]: the EC50 came to 0.05 µM.

`CN1Cc2[nH]c(=O)c3cc(F)ccc3c2C(N(C)C(=O)Nc2ccc(F)c(Cl)c2)C1` (single isomer, unassigned) [Compound 156, 3-(3-Chloro-4-fluorophenyl)-1-(8-fluoro-3-methyl-6-oxo-1,2,3,4,5,6-hexahydrobenzo[c][1,7]naphthyridin-1-yl)-1-methylurea]: the EC50 is 0.42 µM.

With `CCN(C(=O)Nc1ccc(F)c(F)c1)C1CCCc2[nH]c(=O)c3c(c21)CCCC3` (single isomer, unassigned) [Compound 51, 3-(3,4-Difluorophenyl)-1-ethyl-1-(6-oxo-1,2,3,4,5,6,7,8,9,10-decahydrophenanthridin-1-yl)urea], the EC50 was determined as 0.1 µM. Still for that read-out and setting: the result for `CN(C(=O)Nc1ccc(F)c(Cl)c1)C1C[S+]([O-])Cc2[nH]c(=O)c3cc(F)ccc3c21` (single isomer, unassigned) [Compound 196, 3-(3-Chloro-4-fluorophenyl)-1-(8-fluoro-3-oxido-6-oxo-1,4,5,6-tetrahydro-2H-thiopyrano[3,4-c]isoquinolin-1-yl)-1-methylurea] reads 22 µM.
